Experimental data from US20200239398A1, “METHYLENE-CYCLOALKYLACETATE DERIVATIVES AND THEIR USE IN TREATMENT OF NEUROTROPIC CONDITIONS” (Yissum Research Development Company of The Hebrew …, priority 2018, published 2020).
Like-named read-outs stand apart in the source and are kept apart here.

Assays:
[1] = target: T1, Monoamine oxidase type A (MAOA) (Homo sapiens, UniProt P21397); assay: SAFETYscan MAOA Enzymatic; assay type: biochemical; conditions: Inhibitor mode; 10 μM HU-MCA-13; read-out: Maximal Response
T1 construct: DiscoverX (SAFETYscan contract panel)

[2] = tested on: dorsal root ganglion (DRG) sensory neurons; assay: Neurite outgrowth in dorsal root ganglion (DRG) explants; assay type: cell-based, mice
Description: To perform these experiments, about 10 dorsal root ganglia (DRGs) were excised under sterile conditions and transferred to 0.25% Type IV collagenase (Sigma-Aldrich-Merck) in Dulbecco's Modified Eagle Medium (DMEM) at 37° C. for 45 min, followed by a 20-min incubation with 0.025% trypsin in DMEM, to digest the associated connective tissue surrounding the neurons. After plating the ganglia onto collagen (50 μg/ml)/laminin mixture (5 μg/ml)-coated tissue culture wells for 24 h, DRG neurons were cultured for additional 1-7 days in fresh Neurobasal A/B27 containing either 50 ng/ml NGF (positive control), blank medium (DMSO 1%) control and HU-MCA-13. The cultures were photographed; thereafter the ganglia were immune-stained for neuronal tubulin and again photographed using a fluorescent microscope. Image analysis was performed by a researcher blinded to the experimental conditions. Neurite outgrowth distance measured in micrometers, was quantified as for PC12 cultures.

[3] = tested on: male C57BL/6 mice; assay: Acute tolerance in mice, single iv dose; assay type: in vivo
Description: (§1) This pilot study was conducted to obtain acute information of the dose toxicity of HU-MCA-13 (Compound 13 in Scheme 1) in male mice. Male C57BL/6 mice, were injected intravenously with 0.2 ml of HU-MCA-13 in a dose of 250 mg/kg. Mice were monitored for 4 consecutive weeks for autonomic and neurotoxicity symptoms. The mortality and changes on body weight, clinical signs, gross observation, were monitored up to 30 days after treatment. No mortality was found at this high dose of 250 mg/kg. […] The mice were examined once a week for autonomic symptoms by measuring salivation, urinary delivery, pupillary constriction, heart rate, blood pressure, and hair contraction. […] Occurrences of either flaccid or spastic paralysis of the legs were not observed. […] Furthermore, no mice sudden deaths occurred within 24 hours after the injection or during the 4 weeks of observation. […] Sensory motor tests were scored individually and according to the modified neurologic function severity score (mNSS). The data from each individual test and the total score calculated from individual tests that make up the mNSS were measured. The following assays were used: a. beam balance test—mice were placed on a 1-inch wide beam for 60 seconds. A normal response is balance with steady posture for 60 seconds (a score of 0). Deficits are scored if the rat: grasps the side of the beam (a score of 1), hugs the beam and one limb falls down from the beam (a score of 2), hugs the beam and two limbs fall off the beam (a score of 3), attempts to balance on the beam, but falls off from 60 seconds (a score of 4), attempts to balance on the beam but falls off from […], or falls off with no attempt to balance or hang on the beam in <20 seconds (a score of 6); b. foot fault test—forelimb movement dysfunction, while walking on elevated metal grids, was monitored. The animal was placed on horizontal grids (85.5×26.5×20) cm with a glass enclosure for observation. With each weight bearing step, the forelimb can fall or slip between the metal support bars, an event recorded as a foot fault. The total number of forelimb steps and the total number of foot faults were recorded. The percentage of forelimb foot faults to the total steps that occurred within 2 minutes marks the test results; c. hind limb placing test—This test monitors reposition of hind limbs placed down and away from the table edge. The ability to retrieve and place the hind limbs back onto the table was scored. Immediate and complete limb retrieval was scored 0, delayed (>2 seconds) limb retrieval and/or interspersed flailing was scored 1, and no limb retrieval was scored 2; d. Increasing platform angle to slide test—This test monitors the strength and stability of resistance to slide down an inclined platform. It deploys a clean wooden board (60 cm by 40 cm) positioned horizontally. Mice were placed on the board with head facing up the increasing incline. The board then swings to increase the degree of inclination the rat experiences until slipping down the board feet first. The degree of the angle at which the rat relinquishes their grip/stance on the board (slips down) constitute the test results; e. the forelimb whole body suspension test—The test measures grip strength by duration of suspension by forepaws. The rat is suspended on a metal bar (diameter 5 mm) which it tightly holds onto by its forelimbs. The time (seconds) during which each rat could sustain its body weight while holding onto the bar is recorded. The mice drop from the bar onto soft material with no harm. The test was repeated three times and a mean result per rat was used as the score. Cumulatively these sensory motor/neurological findings indicate acute tolerability of 250 mg/kg HU-MCA-13 iv injection in Male C57BL/6 mice.

[4] = Acute tolerance in mice, single iv dose; assay type: in vivo; conditions: C57BL/6, mouse, in vivo; male mice; predicted from the 250 mg/kg iv study; read-out: LD50 after single dose
Description: as §1

[5] = target: T2, Nicotinic acetylcholine Receptor-alpha-4 beta-2 (nAChR (a4/b2)) (Homo sapiens, UniProt P17787+P43681); assay: cell-based; assay type: cell-based; conditions: 10 μM HU-MCA-13, read-out: Maximal Response
T2 construct: DiscoverX (SAFETYscan contract panel)

[6] = target: T3, Vascular endothelial growth factor receptor 2 (KDR tyrosine kinase) (VEGFR2) (Homo sapiens, UniProt P35968); assay: SAFETYscan VEGFR2 kinase Binding; conditions: Inhibitor mode, 10 μM HU-MCA-13, read-out: Maximal Response
T3 construct: DiscoverX (KINOMEscan)

[7] = target: Adenosine Receptor A2A (ADORA2A) (Homo sapiens, UniProt P29274); assay: SAFETYscan ADORA2A Calcium Flux; assay type: cell-based; conditions: 10 μM HU-MCA-13, read-out: Maximal Response
[8] = target: Opioid Receptor Delta 1 (OPRD1) (Homo sapiens, UniProt P41143); assay: SAFETYscan OPRD1 cAMP; assay type: cell-based; conditions: 10 μM HU-MCA-13, read-out: Maximal Response
[9] = target: Histamine Receptor H2 (HRH2) (Homo sapiens, UniProt P25021); assay: SAFETYscan HRH2 cAMP; assay type: cell-based; conditions: 10 μM HU-MCA-13; for Emax: read-out: Maximal Response
[10] = target: T4, hERG (Kv11.1) (Homo sapiens, UniProt Q12809); assay: in vitro; assay type: cell-based; conditions: Blocker mode, 10 μM HU-MCA-13, read-out: Maximal Response
T4 construct: DiscoverX (SAFETYscan contract panel)

[11] = target: T5, A tetrodotoxin-resistant voltage-gated sodium channel (NAVI1.5) (Homo sapiens, UniProt Q14524); assay: cell-based; conditions: read-out: Maximal Response
T5 construct: DiscoverX (SAFETYscan contract panel)

[12] = 250 mg/kg iv, same for 1% DMSO group

Histamine Receptor H2 (HRH2), sequence (P25021 whole entry): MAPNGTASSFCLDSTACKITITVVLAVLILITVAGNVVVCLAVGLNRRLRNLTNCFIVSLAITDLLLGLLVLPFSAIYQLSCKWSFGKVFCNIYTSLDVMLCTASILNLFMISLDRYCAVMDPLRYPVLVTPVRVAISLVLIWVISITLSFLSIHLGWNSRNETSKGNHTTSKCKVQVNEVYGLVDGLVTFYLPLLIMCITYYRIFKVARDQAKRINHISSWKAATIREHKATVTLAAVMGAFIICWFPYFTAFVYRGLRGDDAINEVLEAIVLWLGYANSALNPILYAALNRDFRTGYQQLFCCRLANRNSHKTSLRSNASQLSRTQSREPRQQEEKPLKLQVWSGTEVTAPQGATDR
Adenosine Receptor A2A (ADORA2A), sequence (P29274 whole entry): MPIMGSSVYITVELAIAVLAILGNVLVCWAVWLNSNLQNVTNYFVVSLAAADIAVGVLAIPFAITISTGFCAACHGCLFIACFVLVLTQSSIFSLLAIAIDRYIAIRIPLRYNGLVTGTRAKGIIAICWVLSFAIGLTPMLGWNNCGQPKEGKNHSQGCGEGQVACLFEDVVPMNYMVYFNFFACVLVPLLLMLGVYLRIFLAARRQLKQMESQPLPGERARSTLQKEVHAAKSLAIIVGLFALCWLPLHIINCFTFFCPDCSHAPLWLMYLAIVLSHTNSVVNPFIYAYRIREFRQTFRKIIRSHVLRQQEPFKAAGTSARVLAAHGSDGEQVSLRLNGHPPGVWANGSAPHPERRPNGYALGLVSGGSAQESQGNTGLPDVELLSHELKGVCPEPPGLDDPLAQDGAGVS
Opioid Receptor Delta 1 (OPRD1), sequence (P41143 whole entry): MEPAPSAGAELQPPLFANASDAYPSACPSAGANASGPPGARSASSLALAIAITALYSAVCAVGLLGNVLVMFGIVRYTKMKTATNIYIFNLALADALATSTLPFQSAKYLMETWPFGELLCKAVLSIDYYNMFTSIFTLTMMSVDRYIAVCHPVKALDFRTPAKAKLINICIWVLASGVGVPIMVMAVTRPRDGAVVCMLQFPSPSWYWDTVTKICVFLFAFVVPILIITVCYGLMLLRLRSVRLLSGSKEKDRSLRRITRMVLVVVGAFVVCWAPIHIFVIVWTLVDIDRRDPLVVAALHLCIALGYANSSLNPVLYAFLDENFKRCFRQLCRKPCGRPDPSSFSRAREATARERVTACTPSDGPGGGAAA
T2 sequence (P43681 29-627 limits assumed): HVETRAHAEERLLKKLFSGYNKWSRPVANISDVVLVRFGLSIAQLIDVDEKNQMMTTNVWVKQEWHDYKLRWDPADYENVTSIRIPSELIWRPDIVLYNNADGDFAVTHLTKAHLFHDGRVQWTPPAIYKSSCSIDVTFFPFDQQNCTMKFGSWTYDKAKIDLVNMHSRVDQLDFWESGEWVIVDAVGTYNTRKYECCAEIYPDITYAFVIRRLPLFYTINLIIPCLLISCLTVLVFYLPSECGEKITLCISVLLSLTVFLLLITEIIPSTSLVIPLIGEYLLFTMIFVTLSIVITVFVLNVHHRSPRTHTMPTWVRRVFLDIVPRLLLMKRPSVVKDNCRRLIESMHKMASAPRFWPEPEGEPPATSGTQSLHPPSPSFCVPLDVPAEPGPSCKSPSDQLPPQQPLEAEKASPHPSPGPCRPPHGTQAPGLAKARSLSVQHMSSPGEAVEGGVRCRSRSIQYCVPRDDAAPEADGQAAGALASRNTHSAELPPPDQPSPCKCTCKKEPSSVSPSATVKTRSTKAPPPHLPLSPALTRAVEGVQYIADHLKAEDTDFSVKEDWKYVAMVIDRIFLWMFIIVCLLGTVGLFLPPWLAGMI
T2 sequence (P17787 26-502): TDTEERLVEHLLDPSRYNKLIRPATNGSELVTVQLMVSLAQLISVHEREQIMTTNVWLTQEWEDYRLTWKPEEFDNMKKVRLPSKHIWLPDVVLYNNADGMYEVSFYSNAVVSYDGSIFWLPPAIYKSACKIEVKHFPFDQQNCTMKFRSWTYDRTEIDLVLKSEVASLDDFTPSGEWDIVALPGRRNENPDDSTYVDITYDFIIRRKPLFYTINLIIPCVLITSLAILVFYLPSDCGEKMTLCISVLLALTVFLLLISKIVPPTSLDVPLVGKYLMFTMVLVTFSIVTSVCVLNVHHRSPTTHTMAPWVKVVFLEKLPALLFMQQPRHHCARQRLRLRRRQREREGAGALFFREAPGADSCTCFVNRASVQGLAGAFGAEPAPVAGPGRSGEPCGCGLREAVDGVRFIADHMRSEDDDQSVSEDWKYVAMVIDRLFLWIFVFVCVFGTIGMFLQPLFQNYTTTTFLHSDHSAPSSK
T4 sequence (Q12809 whole entry): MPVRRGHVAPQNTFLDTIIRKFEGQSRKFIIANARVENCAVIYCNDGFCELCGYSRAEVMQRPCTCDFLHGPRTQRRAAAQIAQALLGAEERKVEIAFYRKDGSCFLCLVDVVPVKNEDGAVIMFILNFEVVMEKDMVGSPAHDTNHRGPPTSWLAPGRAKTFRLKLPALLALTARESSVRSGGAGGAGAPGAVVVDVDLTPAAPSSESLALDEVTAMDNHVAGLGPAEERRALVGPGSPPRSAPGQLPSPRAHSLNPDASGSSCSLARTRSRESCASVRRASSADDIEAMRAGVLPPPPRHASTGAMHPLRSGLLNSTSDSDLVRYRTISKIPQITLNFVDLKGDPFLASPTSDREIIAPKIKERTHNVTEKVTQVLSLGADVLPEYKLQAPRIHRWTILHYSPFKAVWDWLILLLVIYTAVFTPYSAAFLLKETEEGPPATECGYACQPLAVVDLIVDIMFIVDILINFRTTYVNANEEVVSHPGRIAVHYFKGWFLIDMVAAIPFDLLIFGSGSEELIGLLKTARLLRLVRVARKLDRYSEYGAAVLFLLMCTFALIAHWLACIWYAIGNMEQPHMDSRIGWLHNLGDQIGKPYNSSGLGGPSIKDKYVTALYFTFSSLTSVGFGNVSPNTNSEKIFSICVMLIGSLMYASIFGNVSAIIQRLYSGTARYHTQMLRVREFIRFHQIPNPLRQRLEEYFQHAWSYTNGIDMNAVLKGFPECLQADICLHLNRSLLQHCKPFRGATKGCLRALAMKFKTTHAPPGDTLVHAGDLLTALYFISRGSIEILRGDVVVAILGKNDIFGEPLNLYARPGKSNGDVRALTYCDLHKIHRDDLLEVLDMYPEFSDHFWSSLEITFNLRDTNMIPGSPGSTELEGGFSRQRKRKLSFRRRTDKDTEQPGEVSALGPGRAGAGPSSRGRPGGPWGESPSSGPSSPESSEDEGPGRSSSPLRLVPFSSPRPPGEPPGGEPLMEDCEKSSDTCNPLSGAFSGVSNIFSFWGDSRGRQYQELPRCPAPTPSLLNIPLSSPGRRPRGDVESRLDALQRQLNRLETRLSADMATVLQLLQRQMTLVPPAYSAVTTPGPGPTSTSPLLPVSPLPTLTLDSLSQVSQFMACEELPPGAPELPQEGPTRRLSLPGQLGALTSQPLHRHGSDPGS
T1 sequence (P21397 whole entry): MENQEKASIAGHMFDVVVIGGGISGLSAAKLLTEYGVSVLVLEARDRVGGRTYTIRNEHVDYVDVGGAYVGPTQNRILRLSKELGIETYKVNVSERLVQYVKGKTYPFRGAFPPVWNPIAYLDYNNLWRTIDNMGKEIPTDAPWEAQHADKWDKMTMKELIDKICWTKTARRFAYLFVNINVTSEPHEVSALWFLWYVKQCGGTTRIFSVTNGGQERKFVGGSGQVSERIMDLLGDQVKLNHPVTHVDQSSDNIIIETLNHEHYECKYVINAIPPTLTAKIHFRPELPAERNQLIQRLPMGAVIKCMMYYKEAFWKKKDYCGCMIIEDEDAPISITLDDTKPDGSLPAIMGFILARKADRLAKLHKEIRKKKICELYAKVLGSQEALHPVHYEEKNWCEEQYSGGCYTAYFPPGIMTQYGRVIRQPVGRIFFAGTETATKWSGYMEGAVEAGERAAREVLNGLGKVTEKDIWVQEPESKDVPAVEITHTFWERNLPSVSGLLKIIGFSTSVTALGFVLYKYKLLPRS

In the case of `C=CCC1CCC[C@@H](CCC(=O)O)C1=C` (some centres unmarked) [Compound 13], the Emax [1] is reported as 1.86%, the “neurite outgrowth, neurotropic effect (in words)” value ([2]; HU-MCA-13 5 μM, 5 days) is reported as “strong neurite outgrowth, neurotropic effect like NGF” and the “maturity of neurites (cytoskeletal-tubulin protein staining)” value ([2]; HU-MCA-13 compared with NGF-treated ganglia) is reported as “less mature than in NGF-treated ganglia”. For the same compound, the “neurotoxicity signs (paralysis, motor activity, behavior)” value ([3]; 250 mg/kg iv) was “No paralysis, altered motor activity, or irregular behavior was observed”, the mortality ([3]; 250 mg/kg iv single dose, up to 30 days) was “No mortality” and the “autonomic symptoms (salivation, urinary delivery, pupillary constriction, heart rate, blood pressure, hair contraction)” value ([3]; 250 mg/kg iv vs 1% DMSO) was “no differences were observed”. For the same compound, the “changes on body weight” value ([3]; 250 mg/kg iv vs 1% DMSO treated group) was “No significant changes”, the “body weight at end” value [3, 12] was 27 gram and the “body weight at start” value [3, 12] was 21 gram. For the same compound, the “cutaneous hematomas around the injection site or at distant locations” value ([3]; within 24 hours after injection, 250 mg/kg iv) was “have not been observed”, the LD50 at 30 days [4] was > 2000 mg/kg and the Emax ([5]; Blocker mode) was 5.95%. For the same compound, the Emax ([5]; Opener mode) was 0%, the Emax [6] was 21.7% and the Emax ([7]; Agonist mode) was 0%. For the same compound, the Emax ([7]; Antagonist mode) was 4.09%, the Emax ([8]; Agonist mode) was 6.34% and the Emax ([8]; Antagonist mode) was 0%. For the same compound, the Emax ([9]; Agonist mode) was 1.78%, the “Maximal Response” value ([9]; Antagonist mode) was 26.94% and the Emax ([9]; Antagonist mode) was 26.9%. It also gave an Emax at 10 μM [10] of 0% and an Emax [11] of 0%.
